Source: paper PMC6327993, “Synthesis carbonic anhydrase enzyme inhibition and antioxidant activity of novel benzothiazole derivatives incorporating glycine, methionine, alanine, and phenylalanine moieties” (Journal of Enzyme Inhibition and Medicinal Chemistry, 2018)

Experiments:
[1] = DPPH radical scavenging activity
Experimental: Antioxidant activity was determined based on the ability of the antioxidants to act as radical scavengers towards the stable free radical, 1,1-diphenyl-2-picrylhydrazyl (DPPH). As detailed by Yang et al.[40], 1 ml of antioxidant solution (solubilised in ethanol) was added to 3 ml of a 0.1 mM ethanolic solution of DPPH. After 30 min at ambient temperature in darkness, absorbance readings were taken at 517 nm. Inhibition (%) was calculated using the equation [1–(As−Ao)/Ab]×100 where As is the absorbance reading for samples containing antioxidant, Ao is the absorbance of the antioxidant in pure methanol and Ab corresponded to the absorbance of the DPPH solution.

[2] = target: hCA XIII (Homo sapiens, UniProt Q8N1Q1); experiment: stopped flow CO2 hydrase assay, hCA XIII; format: biochemical; details: mean from three different assays, errors ±5–10%
Chain of hCA XIII (Q8N1Q1 whole entry): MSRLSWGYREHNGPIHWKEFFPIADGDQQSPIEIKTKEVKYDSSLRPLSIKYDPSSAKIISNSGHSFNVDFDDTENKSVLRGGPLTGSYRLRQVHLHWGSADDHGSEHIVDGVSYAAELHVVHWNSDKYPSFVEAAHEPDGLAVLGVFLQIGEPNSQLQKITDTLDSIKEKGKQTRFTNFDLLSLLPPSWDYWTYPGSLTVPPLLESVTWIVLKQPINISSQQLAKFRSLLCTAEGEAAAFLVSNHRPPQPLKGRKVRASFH
Experimental: (§1) An applied photophysics stopped-flow instrument has been used for assaying the CA catalysed CO2 hydration activity by using method of Khalifah[34]. Phenol red (at a concentration of 0.2 mM) has been used as an indicator, working at the absorbance maximum of 557 nm, with 20 mM HEPES (pH 7.5) as buffer, and 20 mM Na2SO4 (for maintaining constant the ionic strength), following the initial rates of the CA-catalysed CO2 hydration reaction for a period of 10–100 s. The CO2 concentrations ranged from 1.7 to 17 mM for the determination of the kinetic parameters and inhibition constants. […] The uncatalysed rates were determined in the same manner and subtracted from the total observed rates. Stock solutions of inhibitor (0.1 mM) were prepared in distilled–deionised water and dilutions up to 0.01 nM were done thereafter with the assay buffer. Inhibitor and enzyme solutions were preincubated together for 15 min at room temperature prior to assay, in order to allow the formation of the E–I complex. The inhibition constants were obtained by non-linear least-square methods using PRISM (www.graphpad.com), and non-linear least squares methods, values representing the mean of at least three different determinations, as described earlier by us[35–39].

[3] = target: hCA II (Homo sapiens, UniProt P00918); experiment: stopped flow CO2 hydrase assay, hCA II; format: biochemical; details: mean from three different assays, errors ±5–10%, read-out: KI hCAII
Experimental: as §1

[4] = target: hCA I (Homo sapiens, UniProt P00915); experiment: stopped flow CO2 hydrase assay, hCA I; format: biochemical; details: mean from three different assays, errors ±5–10%
Chain of hCA I (P00915 whole entry): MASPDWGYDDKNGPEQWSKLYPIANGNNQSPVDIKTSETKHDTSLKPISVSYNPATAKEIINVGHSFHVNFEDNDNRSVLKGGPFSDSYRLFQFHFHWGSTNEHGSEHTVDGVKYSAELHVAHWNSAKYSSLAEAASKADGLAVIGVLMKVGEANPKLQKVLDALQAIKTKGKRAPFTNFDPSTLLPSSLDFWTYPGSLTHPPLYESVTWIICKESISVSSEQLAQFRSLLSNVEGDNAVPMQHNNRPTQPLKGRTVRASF
Experimental: as §1

[5] = target: hCA V (Homo sapiens, UniProt P35218); experiment: stopped flow CO2 hydrase assay, hCA V; format: biochemical; details: mean from three different assays, errors ±5–10%
Chain of hCA V (P35218 39-305): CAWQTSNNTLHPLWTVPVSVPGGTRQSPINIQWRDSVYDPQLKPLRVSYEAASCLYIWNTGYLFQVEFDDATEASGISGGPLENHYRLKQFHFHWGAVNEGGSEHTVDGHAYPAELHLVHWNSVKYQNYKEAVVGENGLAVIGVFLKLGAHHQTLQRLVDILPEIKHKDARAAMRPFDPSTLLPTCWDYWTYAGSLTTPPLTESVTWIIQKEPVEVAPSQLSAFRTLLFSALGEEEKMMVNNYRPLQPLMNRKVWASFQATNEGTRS
Experimental: as §1

| Molecule | Antioxidant activity, % ([1]; 12.5 μg/ml) | Antioxidant activity, % ([1]; 25 μg/ml) | Antioxidant activity, % ([1]; 37.5 μg/ml) | Antioxidant activity, % ([1]; 62.5 μg/ml) | Antioxidant activity, % ([1]; 125 μg/ml) | Ki [2] | melting point | Ki [3] | Ki [4] | Ki [5] |
| --- | --- | --- | --- | --- | --- | --- | --- | --- | --- | --- |
| COc1ccc(O)c(C(C)(C)C)c1 [BHA, reference compound] | 61.1% | 63.0% | 67.5% | 71.0% | 72.4% | – | – | – | – | – |
| Cc1ccc2nc(NC(=O)CNC(=O)OCc3ccccc3)sc2c1 [Compound 1] | 0% | 0% | 0% | 11.4% | 12.5% | 94.6 µM | 213 to 214 °C | 32.1 µM | 4.3 µM | 4.3 µM |
| Cc1ccc2nc(NC(=O)CNC(=O)OC(C)(C)C)sc2c1 [Compound 2] | 0% | 0% | 3.9% | 4.6% | 6.1% | > 100 µM | 212 to 213 °C | 74.8 µM | > 100 µM | 65.5 µM |
| CCOc1ccc2nc(NC(=O)CNC(=O)OCc3ccccc3)sc2c1 [Compound 5] | 12.0% | 15.0% | 25.0% | 32.0% | 38.0% | > 100 µM | 214 to 215 °C | 82.3 µM | > 100 µM | > 100 µM |
| CCOc1ccc2nc(NC(=O)CNC(=O)OC(C)(C)C)sc2c1 [Compound 7] | 13.0% | 15.0% | 22.5% | 24.8% | 28.3% | > 100 µM | 171 to 172 °C | > 100 µM | > 100 µM | 60 µM |
| Cc1ccc2nc(NC(=O)CNC(=O)OCC3c4ccccc4-c4ccccc43)sc2c1 [Compound 9, (9H-Fluoren-9-yl)methyl (2-((6-methylbenzo[d]thiazol-2-yl)amino)-2-oxoethyl)carbamate] | 4% | 4.6% | 5.3% | 5.8% | 6.4% | > 100 µM | 220 to 221 °C | > 100 µM | 71.9 µM | 7.3 µM |
| CS(=O)(=O)c1ccc2nc(NC(=O)CNC(=O)OCC3c4ccccc4-c4ccccc43)sc2c1 [Compound 10, (9H-Fluoren-9-yl)methyl(2-((6-(methylsulfonyl)benzo[d]thiazol-2-yl)amino)-2-oxoethyl)carbamate] | 0% | 0% | 22.5% | 23.1% | 24.5% | > 100 µM | – | > 100 µM | 7.1 µM | 2.9 µM |
| Cc1cccc2sc(NC(=O)CNC(=O)OCC3c4ccccc4-c4ccccc43)nc12 [Compound 11, (9H-Fluoren-9-yl)methyl (2-((4-methylbenzo[d]thiazol-2-yl)amino)-2-oxoethyl)carbamate] | 5% | 6.7% | 6.9% | 7.1% | 8.2% | > 100 µM | 218 to 219 °C | 88.1 µM | > 100 µM | 74.5 µM |
| Cc1ccc2nc(-c3ccc(NC(=O)C(Cc4ccccc4)NC(=O)OCc4ccccc4)cc3)sc2c1 (centres unmarked) [Compound 12, Benzyl (1-((4–(6-methylbenzo[d]thiazol-2-yl)phenyl)amino)-1-oxo-3-phenylpropan-2-yl)carbamate] | 0% | 3% | 3.4% | 5.8% | 6.1% | > 100 µM | 227 to 228 °C | 37 µM | > 100 µM | > 100 µM |
| CSCCC(NC(=O)OCc1ccccc1)C(=O)Nc1ccc(-c2nc3ccc(C)cc3s2)cc1 (centres unmarked) [Compound 13, Benzyl (1-((4–(6-methylbenzo[d]thiazol-2-yl)phenyl)amino)-4-(methylthio)-1-oxobutan-2-yl)carbamate] | 5% | 6.7% | 6.1% | 7.1% | 8.2% | 84.9 µM | 200 to 201 °C | 39.1 µM | > 100 µM | 41.2 µM |
| Cc1c(C)c2c(c(C)c1O)CC[C@@](C)(CCC[C@H](C)CCC[C@H](C)CCCC(C)C)O2 [α-Toc., α-tocopherol, reference compound] | 62.9% | 63.4% | 68.4% | 72.8% | 74.0% | – | – | – | – | – |
| Benzyl (3–(6-(methylsulfonyl)benzo[d]thiazol-2-yl)-2-oxopropyl)carbamate [Compound 8] | 0% | 2.1% | 6.6% | 19.2% | 20.7% | > 100 µM | – | > 100 µM | 89.9 µM | 9 µM |
| Benzyl (4–(6-ethoxybenzo[d]thiazol-2-yl)-3-oxo-1-phenylbutan-2-yl)carbamate [Compound 6] | 11.0% | 14.0% | 23.0% | 32.0% | 37.0% | > 100 µM | – | > 100 µM | > 100 µM | > 100 µM |
| Tert-butyl (4–(6-methylbenzo[d]thiazol-2-yl)-3-oxo-1-phenylbutan-2-yl)carbamate [Compound 4] | 0% | 5.7% | 5.8% | 9.6% | – | > 100 µM | – | > 100 µM | > 100 µM | > 100 µM |
| Tert-butyl (4–(6-methylbenzo[d]thiazol-2-yl)-3-oxobutan-2-yl)carbamate [Compound 3] | 3.3% | 3.4% | 5.3% | 7.5% | 7.7% | > 100 µM | – | 50.4 µM | 90.5 µM | 86.9 µM |
